Experimental data as given in article PMC10106456 (Communications Biology, 2023).
Values joined by “and” are separate entries in the source; they are usually repeats but may differ in a detail not shown here. Equal values may be shown once. Read-outs that look alike come from different tables or passages of the source.

Tests used:
[1] = system: E. coli DH5αZ1 + pZE24 (empty); assay: Microbroth dilution antibiotic susceptibility test (MIC); format: cell-based; details: Escherichia coli, 20 h, drug alone
Description: (§1) For high expression, 1 mM IPTG fully relieves repression by LacI[44] thus only IPTG was used in whole-cell tests. Chemically-competent E. coli DH5αZ1 (Expressys) was transformed with these pZE24 constructs by heat shock. Minimum inhibitory concentrations (MICs) were measured as per Clinical and Laboratory Standards Institute (CLSI) guidelines. Substrates and inhibitors were dissolved in DMSO (20 mg/mL) then diluted to working concentrations in cation-adjusted Mueller-Hinton II broth supplemented with 50 μg/mL kanamycin (Supplementary Data 2). Antibiotic susceptibility testing panels were prepared in 96-well flat-bottom microplates (Corning) by two-fold serial dilution of the antibiotic of interest (Supplementary Data 3). […] Liquid cultures of each strain were grown to exponential phase then diluted to a standard concentration (OD600 = 0.0015, which is equivalent to double ~5 × 10^5 CFU/mL) and inoculated into each panel at a 1:1 ratio. […] Each strain-antibiotic/inhibitor combination was tested in triplicate, along with no-drug and no-cell controls. Inoculated panels were sealed with Breathe-Easy membranes (Sigma-Aldrich) and incubated at 37 °C for 20 h. MICs were scored by absorbance measurements at 600 nm (OD600) using the Synergy H1 microplate reader (Biotek Instruments, Inc).

[2] = system: E. coli DH5αZ1 + pZE24-tet(X6); assay: as above; format: cell-based; details: Escherichia coli
Description: as §1

[3] = system: E. coli DH5αZ1 + pZE24-tet(X7); assay: as above; format: cell-based; details: Escherichia coli, 20 h
Description: as §1

Tet(X6) = Tet(X6) (Proteus genomosp. 6, UniProt A0A6I7DAX3); details: for Sigmoidal curve fit, best-fit Kprime / Sigmoidal curve fit, best-fit Vmax / Sigmoidal curve fit, best-fit h / Sigmoidal curve fit, best-fit Khalf: allosteric sigmoidal model, Supplementary Data 1; for Sigmoidal curve fit, best-fit Khalf: [Sub] in μM; for Michaelis-menten nonlinear fit, best-fit Kcat / Michaelis-menten nonlinear fit, best-fit Vmax: supplementary source data; for Michaelis-menten nonlinear fit, best-fit Vmax: Tet(X6) 0.4 µM
Chain of Tet(X6) (A0A6I7DAX3 entry or part of it): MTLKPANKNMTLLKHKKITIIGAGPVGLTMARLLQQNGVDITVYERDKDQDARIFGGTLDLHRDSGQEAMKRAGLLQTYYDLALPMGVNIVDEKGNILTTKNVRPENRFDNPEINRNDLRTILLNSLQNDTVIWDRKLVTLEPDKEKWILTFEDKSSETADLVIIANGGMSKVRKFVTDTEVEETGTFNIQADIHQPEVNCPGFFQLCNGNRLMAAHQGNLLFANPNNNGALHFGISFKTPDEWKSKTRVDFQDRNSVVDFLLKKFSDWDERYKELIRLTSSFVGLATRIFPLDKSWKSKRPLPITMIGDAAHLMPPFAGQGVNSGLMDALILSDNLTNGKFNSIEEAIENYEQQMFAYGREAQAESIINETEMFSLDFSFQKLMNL
Description: All experiments were prepared open to air in non-degassed buffer solutions at room temperature. […] Initial enzyme velocities were determined by linear regression using Agilent Cary WinUV Software over the linear range of the reaction (typically between 0 to 1 min), plotted against the concentration of the substrate, and fitted to the Michaelis–Menten or allosteric sigmoidal nonlinear regression equations using GraphPad Prism 6.

Tet(X2) = details: surface-localized single point mutation; cited from earlier work
[4] = system: CN(C)[C@@H]1C(O)=C(C(N)=O)C(=O)[C@@]2(O)C(O)=C3C(=O)c4c(O)c(NC(=O)CN5CCCC5)cc(F)c4C[C@H]3C[C@@H]12; assay: purified protein, by the assay type; details: pH 8.5
[5] = system: CN(C)[C@@H]1C(O)=C(C(N)=O)C(=O)[C@@]2(O)C(O)=C3C(=O)c4c(O)cccc4[C@@](C)(O)[C@H]3C[C@@H]12; assay: purified protein, by the assay type; details: other: compound as substrate of Tet(X6), Michaelis-Menten fit, pH 8.5
[6] = system: CN(C)c1cc(NC(=O)CNC(C)(C)C)c(O)c2c1C[C@H]1C[C@H]3[C@H](N(C)C)C(O)=C(C(N)=O)C(=O)[C@@]3(O)C(O)=C1C2=O; assay: purified protein, by the assay type; details: pH 8.5
[7] = system: Cc1c2c(c(O)c3c(O)cccc13)C(=O)[C@]1(O)C(=O)C(C(N)=O)=C(O)[C@@H](N(C)C)[C@@H]1C2; assay: purified protein, by the assay type; details: other: compound as substrate of Tet(X6), Michaelis-Menten fit, pH 8.5
[8] = system: [H][C@@]12Cc3c(N(C)C)cc(CNCC(C)(C)C)c(O)c3C(=O)C1=C(O)[C@]1(O)C(=O)C(C(N)=O)=C(O)[C@@H](N(C)C)[C@]1([H])C2; assay: purified protein, by the assay type; details: pH 8.5
[9] = [Sub] 3.8961 μM, trials 1-3, absorbance 400 nm (440 nm for aTC)
[10] = [Sub] 6.16883 μM, trials 1-3, absorbance 400 nm (440 nm for aTC)
[11] = [Sub] 8.11688 μM, trials 1-3, absorbance 400 nm (440 nm for aTC)
[12] = [Sub] 10.0649 μM, trials 1-3, absorbance 400 nm
[13] = [Sub] 29.8701 μM, trials 1-3, absorbance 400 nm (440 nm for aTC)
[14] = [Sub] 1.96581 μM, trials 1-3, absorbance 400 nm
[15] = [Sub] 3.93162 μM, trials 1-3, absorbance 400 nm
[16] = [Sub] 5.89744 μM, trials 1-3, absorbance 400 nm
[17] = [Sub] 7.86325 μM, trials 1-3, absorbance 400 nm
[18] = [Sub] 9.82906 μM, trials 1-3, absorbance 400 nm
[19] = [Sub] 20.641 μM, trials 1-3, absorbance 400 nm
[20] = [Sub] 30.4701 μM, trials 1-3, absorbance 400 nm
[21] = other: compound as substrate of Tet(X6), Michaelis-Menten fit
[22] = other: supplementary source data, [Sub] in μM

For `CN(C)[C@@H]1C(O)=C(C(N)=O)C(=O)[C@@]2(O)C(O)=C3C(=O)c4c(O)ccc(Cl)c4[C@@](C)(O)[C@H]3C[C@@H]12` [CTC, chlortetracycline], the MIC [1] was 2 µg/mL, the MIC [2] was 128 µg/mL and the MIC [3] was 32 µg/mL.
For `C[C@H]1c2cccc(O)c2C(=O)C2=C(O)[C@]3(O)C(=O)C(C(N)=O)=C(O)[C@@H](N(C)C)[C@@H]3[C@@H](O)[C@@H]21` [DOX, doxycycline], the MIC [1] was 1 µg/mL, the MIC ([2]; 20 h) was 32 µg/mL and the MIC [3] was 16 µg/mL.
`CN(C)[C@@H]1C(O)=C(C(N)=O)C(=O)[C@@]2(O)C(O)=C3C(=O)c4c(O)c(NC(=O)CN5CCCC5)cc(F)c4C[C@H]3C[C@@H]12` [ERA, eravacycline] showed an MIC [1] of 0.25 µg/mL, an MIC ([2]; 20 h) of 8 µg/mL and an MIC [3] of 4 µg/mL. The “Slope (initial velocity of substrate degradation)” value (from here on “Slope”) (Tet(X6); [9]) was 0.0062 and 0.0046 and 0.0039, the “Slope” value (Tet(X6); [10]) was 0.0169 and 0.0106 and 0.0133 and the “Slope” value (Tet(X6); [11]) was 0.0312 and 0.0317 and 0.0293. The “Slope” value (Tet(X6); [12]) was 0.0442 and 0.0406 and 0.047, the “Slope” value (Tet(X6); [Sub] 20.1299 μM, trials 1-3, absorbance 400 nm (440 nm for aTC)) was 0.0511 and 0.0571 and 0.0722 and the “Slope” value (Tet(X6); [13]) was 0.0798 and 0.0764 and 0.0969. The “Slope” value (Tet(X6); [Sub] 64.9351 μM, trials 1-2, absorbance 400 nm) was 0.1162 and 0.1096, the “Sigmoidal curve fit, best-fit Kprime” value (Tet(X6)) was 84.21 and the “Sigmoidal curve fit, best-fit Vmax” value (Tet(X6)) was 0.1315. For the same compound, the “Sigmoidal curve fit, best-fit h” value (Tet(X6)) was 1.474, the “Sigmoidal curve fit, best-fit Khalf” value (Tet(X6)) was 20.22 and the “Michaelis-menten nonlinear fit, best-fit Kcat” value (Tet(X6)) was 0.5027. The “Michaelis-menten nonlinear fit, best-fit Vmax” value (Tet(X6)) was 0.2011.
`CN(C)c1cc(CNCC(C)(C)C)c(O)c2c1C[C@H]1C[C@H]3[C@H](N(C)C)C(O)=C(C(N)=O)C(=O)[C@@]3(O)C(O)=C1C2=O` [OMA, omadacycline] gave an MIC [1] of 2 µg/mL, an MIC ([2]; 20 h) of 64 µg/mL and an MIC [3] of 16 µg/mL. The “Slope” value (Tet(X6); [Sub] 1.94805 μM, trials 1-3, absorbance 400 nm (440 nm for aTC)) was 0.0061 and 0.0058 and 0.0045, the “Slope” value (Tet(X6); [9]) was 0.0076 and the “Slope” value (Tet(X6); [10]) was 0.0203 and 0.0178 and 0.0171. For the same compound, the “Slope” value (Tet(X6); [11]) was 0.0286 and 0.0269 and 0.0241, the “Slope” value (Tet(X6); [12]) was 0.0336 and 0.0293 and 0.0307 and the “Slope” value (Tet(X6); [13]) was 0.0474 and 0.044 and 0.0515. For the same compound, the “Sigmoidal curve fit, best-fit Kprime” value (Tet(X6)) was 61.85, the “Sigmoidal curve fit, best-fit Vmax” value (Tet(X6)) was 0.05144 and the “Sigmoidal curve fit, best-fit h” value (Tet(X6)) was 1.97. The “Sigmoidal curve fit, best-fit Khalf” value (Tet(X6)) was 8.114, the “Michaelis-menten nonlinear fit, best-fit Kcat” value (Tet(X6)) was 0.1969 and the “Michaelis-menten nonlinear fit, best-fit Vmax” value (Tet(X6)) was 0.07875.
In the case of `CN(C)[C@@H]1C(O)=C(C(N)=O)C(=O)[C@@]2(O)C(O)=C3C(=O)c4c(O)cccc4[C@@](C)(O)[C@H]3C[C@@H]12` [TET, tetracycline], the MIC [1] is reported as 1 µg/mL, the MIC [3] is reported as 32 µg/mL and the “Slope” value (Tet(X6); [14]) is reported as 0.0375 and 0.04014 and 0.02364. The “Slope” value (Tet(X6); [15]) was 0.04215 and 0.04584 and 0.0387, the “Slope” value (Tet(X6); [16]) was 0.05933 and 0.04704 and 0.05922 and the “Slope” value (Tet(X6); [17]) was 0.06246 and 0.0528 and 0.05754. The “Slope” value (Tet(X6); [18]) was 0.05855 and 0.06072 and 0.05694, the “Slope” value (Tet(X6); [19]) was 0.07878 and 0.08328 and 0.07938 and the “Slope” value (Tet(X6); [20]) was 0.0879 and 0.09378 and 0.09744. The “Michaelis-menten nonlinear fit, best-fit Kcat” value (Tet(X6)) was 0.2636 and the “Michaelis-menten nonlinear fit, best-fit Vmax” value (Tet(X6)) was 0.1054 and 0.1047.
Work on `CN(C)c1cc(NC(=O)CNC(C)(C)C)c(O)c2c1C[C@H]1C[C@H]3[C@H](N(C)C)C(O)=C(C(N)=O)C(=O)[C@@]3(O)C(O)=C1C2=O` [TIG, tigecycline] yielded an MIC [1] of 0.5 µg/mL, an MIC ([2]; 20 h) of 4 µg/mL and an MIC [3] of 2 µg/mL. The “Slope” value (Tet(X6); [14]) was 0.00897 and 0.01087 and 0.008562, the “Slope” value (Tet(X6); [15]) was 0.01529 and 0.0186 and 0.0147 and the “Slope” value (Tet(X6); [16]) was 0.02792 and 0.01914 and 0.0183. For the same compound, the “Slope” value (Tet(X6); [17]) was 0.03155 and 0.02526 and 0.02718, the “Slope” value (Tet(X6); [18]) was 0.02741 and 0.02394 and 0.02598 and the “Slope” value (Tet(X6); [19]) was 0.03075 and 0.05034 and 0.0363. The “Slope” value (Tet(X6); [20]) was 0.05374 and 0.04632 and 0.03822, the “Michaelis-menten nonlinear fit, best-fit Kcat” value (Tet(X6)) was 0.1574 and the “Michaelis-menten nonlinear fit, best-fit Vmax” value (Tet(X6)) was 0.06296 and 0.06154.
For `CN(C)c1ccc(O)c2c1C[C@H]1C[C@H]3[C@H](N(C)C)C(O)=C(C(N)=O)C(=O)[C@@]3(O)C(O)=C1C2=O` [minocycline], the “reduction of apparent Km by point mutation Thr280Ala in Tet(X2)” value (Tet(X2)) is given as “two-fold”.
For Tet(X6) (Proteus columbae), the Km [4, 21] was 47 µM, the kcat [4, 21] was 0.0083 ± 0.0017 s⁻¹ and the kcat/Km [4, 21] was 183 ± 67 M⁻¹ s⁻¹. For the same compound, the Km [4, 22] was 46.6 µM, the kcat [5] was 0.00433 ± 0.00017 s⁻¹ and the Km [6, 21] was 12 µM. The kcat [6, 21] was 0.00267 ± 0.00033 s⁻¹, the kcat/Km [6, 21] was 217 ± 67 M⁻¹ s⁻¹ and the Km [6, 22] was 11.8 µM and 11.1 µM. For the same compound, the Km [7] was 6 µM, the kcat/Km [7] was 200 ± 50 M⁻¹ s⁻¹ and the Km [8, 21] was 18 µM. For the same compound, the kcat [8, 21] was 0.00333 ± 0.00033 s⁻¹, the kcat/Km [8, 21] was 183 ± 50 M⁻¹ s⁻¹ and the Km [8, 22] was 18.4 µM.
